# Experimental data as given in US6419962B1, “External skin treatment composition” (Shiseido Company, Ltd., priority 1996, dated 2002).
# Test: Moisture retention effect (coefficient of rate of moisture evaporation from weight change of sample)
# Format: physicochemical
# Conditions: 50 wt % aqueous solution
# Protocol: The moisture retention effect of unicellularized carrot ([…]) was studied in comparison with water, glycerin ([…]), a methanol extract of carrot ([…]), and DPG (dipropylene glycol) ([…]).
# That is, 50 μl each of the above samples was placed on a chemical balance placed in a room held to 22° C. and a dry humidity of 45%. The change in weight was measured every three minutes for seven times in total. From the results, the coefficient of the rate of moisture evaporation in the sample (coefficient k of rate of moisture evaporation found as dW/dt=kW where the amount of moisture is W and the elapsed time is t, that is, logW=kt+C (C is a constant)) was calculated. […]
# Note that the method of study of this moisture retention effect was the same as the method used in the above Test Example A2. […]
# Note that the method of study of the moisture retention effect was the same as the method performed in the above Test Example A2.
# The moisture retention effect of unicellularized iris rhizome was studied in comparison with purified water, glycerol, and an ethanol extract of iris rhizome.
# That is, with the exception of the purified water, a 50 wt % aqueous solution was prepared and the coefficient of the moisture evaporation rate was found in the same way as the study of the moisture retention effect of unicellularized carrot (Test Example A2). […]
smiles,measurement,value
OCC(O)CO [Glycerol],Coefficient of moisture evaporation rate,−0.0230
